Experimental data: US7741341B2, “Benzimidazole-derivatives as factor Xa inhibitors” (sanofi-aventis Deutschland GmbH, priority 2003, dated 2010)
pKi: −log10 of the molar value.

Biological target: T1, human factor Xa (Homo sapiens, UniProt P00742)
T1 construct: human factor Xa (Enzyme Research Laboratories, Inc; South Bend, Ind.); purchased Enzyme Research Laboratories, Inc; South Bend, Ind
Assay: Factor Xa assay (chromogenic, substrate S-2765)
Assay type: biochemical
Conditions: read-out: Ki(FXa)
Protocol: Purified enzymes were used in chromogenic assays.
The IC50 was determined by combining in appropriate wells of a Costar half-area microtiter plate 25 μl human factor Xa (Enzyme Research Laboratories, Inc.; South Bend, Ind.) in TBS-PEG; 40 μl 10% (v/v) DMSO in TBS-PEG (uninhibited control) or various concentrations of the compound to be tested diluted in 10% (v/v) DMSO in TBS-PEG; and substrate S-2765 (N(α)-benzyloxycarbonyl-D-Arg-Gly-L-Arg-p-nitroanilide; Kabi Pharmacia, Inc.; Franklin, Ohio) in TBS-PEG.
The assay was performed by pre-incubating the compound of formula I plus enzyme for 10 min. Then the assay was initiated by adding substrate to obtain a final volume of 100 μl. […] The enzyme concentration was 0.5 nM and substrate concentration was 140 μM.

T1 sequence (P00742 235-488 limits assumed): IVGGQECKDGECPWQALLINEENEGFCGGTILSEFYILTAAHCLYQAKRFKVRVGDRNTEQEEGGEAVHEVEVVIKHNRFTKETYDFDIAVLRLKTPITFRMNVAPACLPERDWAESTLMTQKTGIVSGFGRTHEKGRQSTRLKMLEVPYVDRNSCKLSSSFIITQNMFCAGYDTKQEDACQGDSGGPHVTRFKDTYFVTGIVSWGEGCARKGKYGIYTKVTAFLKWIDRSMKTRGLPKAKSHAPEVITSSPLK
T1 sequence (P00742 41-179 partner limits assumed): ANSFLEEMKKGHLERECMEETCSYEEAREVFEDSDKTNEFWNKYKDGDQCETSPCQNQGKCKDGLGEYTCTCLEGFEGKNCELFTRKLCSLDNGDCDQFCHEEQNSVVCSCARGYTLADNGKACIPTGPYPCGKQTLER

| SMILES | pKi |
| --- | --- |
| COC(=O)c1cccc2c1nc(C(=O)Nc1ccc(N3CCOCC3=O)cc1)n2CC(=O)Nc1ccc(Cl)cn1 [Example 36, 1-[(5-Chloro-pyridin-2-ylcarbamoyl)-methyl]-2-[4-(3-oxo-morpholin-4-yl)-phenylcarbamoyl]-1H-benzoimidazole-4-carboxylic acid methyl ester] | 7.50 |
| O=C(Nc1ccc(-n2ccc(=O)cc2)cc1)c1nc2ccccc2n1Cc1cc(-c2ccc(Cl)s2)on1 [Example 37, 1-[5-(5-Chloro-thiophen-2-yl)-isoxazol-3-ylmethyl]-1H-benzoimidazole-2-carboxylic acid [4-(4-oxo-4H-pyridin-1-yl)-phenyl]-amide] | 7.92 |
| O=C(Cn1c(C(=O)Nc2ccc(-n3ccc(=O)cc3)cc2)nc2ccccc21)Nc1ccc(Cl)cn1 [Example 39, 1-[(5-Chloro-pyridin-2-ylcarbamoyl)-methyl]-1H-benzoimidazole-2-carboxylic acid [4-(4-oxo-4H-pyridin-1-yl)-phenyl]-amide] | 7.33 |
| CN1C2CCC1CC(NC(=O)c1nc3ccccc3n1Cc1cc(-c3ccc(Cl)s3)on1)C2 (stereo not drawn) [Example 40, 1-[5-(5-Chloro-thiophen-2-yl)-isoxazol-3-ylmethyl]-1H-benzoimidazole-2-carboxylic acid (8-methyl-8-aza-bicyclo[3.2.1]oct-3-yl)-amide] | 7.70 |
| O=C(Nc1ccc(-n2ccc(=O)[nH]c2=O)cc1)c1nc2ccccc2n1Cc1cc(-c2ccc(Cl)s2)on1 [Example 41, 1-[5-(5-Chloro-thiophen-2-yl)-isoxazol-3-ylmethyl]-1H-benzoimidazole-2-carboxylic acid [4-(2,4-dioxo-3,4-dihydro-2H-pyrimidin-1-yl)-phenyl]-amide] | 8.22 |
| O=C(Nc1ccc(N2CCOC2=O)cc1)c1nc2ccccc2n1Cc1cc(-c2ccc(Cl)s2)on1 [Example 42, 1-[5-(5-Chloro-thiophen-2-yl)-isoxazol-3-ylmethyl]-1H-benzoimidazole-2-carboxylic acid [4-(2-oxo-oxazolidin-3-yl)-phenyl]-amide] | 6.34 |
| O=C(Cn1c(C(=O)Nc2ccc(N3CCOC3=O)cc2)nc2ccccc21)Nc1ccc(Cl)cn1 [Example 43, 1-[(5-Chloro-pyridin-2-ylcarbamoyl)-methyl]-1H-benzoimidazole-2-carboxylic acid [4-(2-oxo-oxazolidin-3-yl)-phenyl]-amide] | 6.08 |
| O=C(Cn1c(C(=O)Nc2ccc(-n3ccc(=O)[nH]c3=O)cc2)nc2ccccc21)Nc1ccc(Cl)cn1 [Example 44, 1-[(5-Chloro-pyridin-2-ylcarbamoyl)-methyl]-1H-benzoimidazole-2-carboxylic acid [4-(2,4-dioxo-3,4-dihydro-2H-pyrimidin-1-yl)-phenyl]-amide] | 7.55 |
| O=C1CCN(c2ccc(NC(=O)c3nc4ccccc4n3Cc3cc(-c4ccc(Cl)s4)on3)cc2)CC1 [Example 45, 1-[5-(5-Chloro-thiophen-2-yl)-isoxazol-3-ylmethyl]-1H-benzoimidazole-2-carboxylic acid [4-(4-oxo-piperidin-1-yl)-phenyl]-amide] | 6.68 |
| O=C(Nc1ccc(-n2ccncc2=O)cc1)c1nc2ccccc2n1Cc1cc(-c2ccc(Cl)s2)on1 [Example 48, 1-[5-(5-Chloro-thiophen-2-yl)-isoxazol-3-ylmethyl]-1H-benzoimidazole-2-carboxylic acid [4-(2-oxo-2H-pyrazin-1-yl)-phenyl]-amide] | 8.70 |
| O=C(Nc1ccc(N2CCNCC2=O)cc1)c1nc2ccccc2n1Cc1cc(-c2ccc(Cl)s2)on1 [Example 50, 1-[5-(5-Chloro-thiophen-2-yl)-isoxazol-3-ylmethyl]-1H-benzoimidazole-2-carboxylic acid [4-(2-oxo-piperazin-1-yl)-phenyl]-amide] | 6.85 |
| O=C(Cn1c(C(=O)Nc2ccc(N3CCNCC3=O)cc2)nc2ccccc21)Nc1ccc(Cl)cn1 [Example 51, 1-[(5-Chloro-pyridin-2-ylcarbamoyl)-methyl]-1H-benzoimidazole-2-carboxylic acid [4-(2-oxo-piperazin-1-yl)-phenyl]-amide] | 6.29 |
| COCCOc1cccc2c1nc(C(=O)Nc1ccc(N3CCOCC3=O)cc1)n2CC(=O)Nc1ccc(Cl)cn1 [Example 52, 1-[(5-Chloro-pyridin-2-ylcarbamoyl)-methyl]-4-(2-methoxy-ethoxy)-1H-benzoimidazole-2-carboxylic acid [4-(3-oxo-morpholin-4-yl)-phenyl]-amide] | 7.85 |
| O=C(Cn1c(C(=O)Nc2ccc(N3CCOCC3=O)cc2)nc2c(C(=O)O)cccc21)Nc1ccc(Cl)cn1 [Example 53, 1-[(5-Chloro-pyridin-2-ylcarbamoyl)-methyl]-2-[4-(3-oxo-morpholin-4-yl)-phenylcarbamoyl]-1H-benzoimidazole-4-carboxylic acid] | 7.40 |
| CC(C)N1CCC(NC(=O)c2nc3cc(C(=O)N4CC(O)C4)ccc3n2CC(=O)Nc2ccc(Cl)cn2)CC1 [Example 54, 1-[(5-Chloro-pyridin-2-ylcarbamoyl)-methyl]-5-(3-hydroxy-azetidine-1-carbonyl)-1H-benzoimidazole-2-carboxylic acid (1-isopropyl-piperidin-4-yl)-amide] | 7.51 |
| CC(C)N1CCC(NC(=O)c2nc3ccc(C(=O)NCCO)cc3n2CC(=O)Nc2ccc(Cl)cn2)CC1 [Example 57, 3-[(5-Chloro-pyridin-2-ylcarbamoyl)-methyl]-3H-benzoimidazole-2,5-dicarboxylic acid 5-[(2-hydroxy-ethyl)-amide]2-[(1-isopropyl-piperidin-4-yl)-amide]] | 6.23 |
| CC(OC(=O)OC1CCCCC1)OC(=O)c1ccc2c(c1)nc(C(=O)NC1CCN(C(C)C)CC1)n2CC(=O)Nc1ccc(Cl)cn1 (stereo not drawn) [Example 60, 1-[(5-Chloro-pyridin-2-ylcarbamoyl)-methyl]-2-(1-isopropyl-piperidin-4-ylcarbamoyl)-1H-benzoimidazole-5-carboxylic acid 1-cyclohexyloxycarbonyloxy-ethyl ester] | 7.46 |
| CC(OC(=O)OC1CCCCC1)OC(=O)c1ccc2nc(C(=O)NC3CCN(C(C)C)CC3)n(CC(=O)Nc3ccc(Cl)cn3)c2c1 (stereo not drawn) [Example 61, 3-[(5-Chloro-pyridin-2-ylcarbamoyl)-methyl]-2-(1-isopropyl-piperidin-4-ylcarbamoyl)-3H-benzoimidazole-5-carboxylic acid 1-cyclohexyloxycarbonyloxy-ethyl ester] | 6.06 |
| CCOC(=O)OC(C)OC(=O)c1ccc2c(c1)nc(C(=O)NC1CCN(C(C)C)CC1)n2CC(=O)Nc1ccc(Cl)cn1 (stereo not drawn) [Example 62, 1-[(5-Chloro-pyridin-2-ylcarbamoyl)-methyl]-2-(1-isopropyl-piperidin-4-ylcarbamoyl)-1H-benzoimidazole-5-carboxylic acid 1-ethoxycarbonyloxy-ethyl ester] | 7.72 |
| CCOC(=O)OC(C)OC(=O)c1ccc2nc(C(=O)NC3CCN(C(C)C)CC3)n(CC(=O)Nc3ccc(Cl)cn3)c2c1 (stereo not drawn) [Example 63, 3-[(5-Chloro-pyridin-2-ylcarbamoyl)-methyl]-2-(1-isopropyl-piperidin-4-ylcarbamoyl)-3H-benzoimidazole-5-carboxylic acid 1-ethoxycarbonyloxy-ethyl ester] | 6.16 |
| CC(C)N1CCC(NC(=O)c2nc3c(C(=O)OCCO)cccc3n2Cc2cc(-c3ccc(Cl)s3)on2)CC1 [Example 64, 1-[5-(5-Chloro-thiophen-2-yl)-isoxazol-3-ylmethyl]-2-(1-isopropyl-piperidin-4-ylcarbamoyl)-1H-benzoimidazole-4-carboxylic acid 2-hydroxy-ethyl ester] | 8.70 |
| CC(C)N1CCC(NC(=O)c2nc3ccc(C(=O)OCCO)cc3n2Cc2cc(-c3ccc(Cl)s3)on2)CC1 [Example 65, 3-[5-(5-Chloro-thiophen-2-yl)-isoxazol-3-ylmethyl]-2-(1-isopropyl-piperidin-4-ylcarbamoyl)-3H-benzoimidazole-5-carboxylic acid 2-hydroxy-ethyl ester] | 6.92 |
| CC(C)N1CCC(NC(=O)c2nc3c(C(=O)OCC(=O)O)cccc3n2Cc2cc(-c3ccc(Cl)s3)on2)CC1 [Example 66, 1-[5-(5-Chloro-thiophen-2-yl)-isoxazol-3-ylmethyl]-2-(1-isopropyl-piperidin-4-ylcarbamoyl)-1H-benzoimidazole-4-carboxylic acid carboxymethyl ester] | 8.52 |
| CC(C)N1CCC(NC(=O)c2nc3c(C(=O)OCC4CC4)cccc3n2CC(=O)Nc2ccc(Cl)cn2)CC1 [Example 69, 1-[(5-Chloro-pyridin-2-ylcarbamoyl)-methyl]-2-(1-isopropyl-piperidin-4-ylcarbamoyl)-1H-benzoimidazole-4-carboxylic acid cyclopropylmethyl ester] | 7.82 |
| COCCOC(=O)c1cccc2c1nc(C(=O)NC1CCN(C(C)C)CC1)n2CC(=O)Nc1ccc(Cl)cn1 [Example 70, 1-[(5-Chloro-pyridin-2-ylcarbamoyl)-methyl]-2-(1-isopropyl-piperidin-4-ylcarbamoyl)-1H-benzoimidazole-4-carboxylic acid 2-methoxy-ethyl ester] | 7.82 |
| CC(C)N1CCC(NC(=O)c2nc3c(CO)cccc3n2CC(=O)Nc2ccc(Cl)cn2)CC1 [Example 71, 1-[(5-Chloro-pyridin-2-ylcarbamoyl)-methyl]-4-hydroxymethyl-1H-benzoimidazole-2-carboxylic acid (1-isopropyl-piperidin-4-yl)-amide] | 8.15 |
| COCCOCc1cccc2c1nc(C(=O)NC1CCN(C(C)C)CC1)n2CC(=O)Nc1ccc(Cl)cn1 [Example 72, 1-[(5-Chloro-pyridin-2-ylcarbamoyl)-methyl]-4-(2-methoxy-ethoxymethyl)-1H-benzoimidazole-2-carboxylic acid (1-isopropyl-piperidin-4-yl)-amide] | 7.90 |
